Results filed as inconclusive are left out. Active and inactive are the calls of the source. How the calls were made is not given here.
Biological target: Integrin alpha-4 (Homo sapiens) (UniProt P13612)
Assay: inhibition of LDV ligand binding to VLA-4 – cell-based, LDV-FITC binding, flow cytometry, dose response (AID 702)

Integrin alpha-4 (Homo sapiens), sequence (P13612 whole entry, looked up): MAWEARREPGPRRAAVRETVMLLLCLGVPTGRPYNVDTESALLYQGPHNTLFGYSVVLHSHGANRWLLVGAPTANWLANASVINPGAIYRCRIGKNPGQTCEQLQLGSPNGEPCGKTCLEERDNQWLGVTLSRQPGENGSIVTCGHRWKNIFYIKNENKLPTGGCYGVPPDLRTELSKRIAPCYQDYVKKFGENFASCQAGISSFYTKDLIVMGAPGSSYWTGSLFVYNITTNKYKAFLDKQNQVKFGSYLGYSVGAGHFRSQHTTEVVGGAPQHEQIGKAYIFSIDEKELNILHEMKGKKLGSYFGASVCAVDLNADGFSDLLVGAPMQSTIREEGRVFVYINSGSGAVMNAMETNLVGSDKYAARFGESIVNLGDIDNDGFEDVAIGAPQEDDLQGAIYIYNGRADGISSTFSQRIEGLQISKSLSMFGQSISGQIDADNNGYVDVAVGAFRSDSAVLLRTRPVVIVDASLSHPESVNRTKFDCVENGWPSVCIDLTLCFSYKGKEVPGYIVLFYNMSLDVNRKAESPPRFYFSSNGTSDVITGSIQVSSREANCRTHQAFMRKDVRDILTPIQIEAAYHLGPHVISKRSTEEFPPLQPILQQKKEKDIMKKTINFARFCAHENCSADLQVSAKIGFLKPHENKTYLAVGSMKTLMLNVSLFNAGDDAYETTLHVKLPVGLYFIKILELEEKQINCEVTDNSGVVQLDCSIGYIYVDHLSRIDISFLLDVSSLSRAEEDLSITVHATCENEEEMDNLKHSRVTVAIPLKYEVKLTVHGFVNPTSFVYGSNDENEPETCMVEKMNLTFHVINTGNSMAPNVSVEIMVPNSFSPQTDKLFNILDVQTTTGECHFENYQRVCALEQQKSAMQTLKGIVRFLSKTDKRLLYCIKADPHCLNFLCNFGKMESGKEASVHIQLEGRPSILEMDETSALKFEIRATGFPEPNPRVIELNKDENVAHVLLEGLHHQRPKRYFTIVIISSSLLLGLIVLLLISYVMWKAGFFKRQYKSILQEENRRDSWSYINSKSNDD

Row | Compound | outcome | EC50
1 | N/C(=N/O)c1nc(N2CCCC2)nc(N(c2ccccc2)c2ccccc2)n1 | – | 20.2 µM
2 | COc1cccc2sc(Nc3nnc(-c4ccccc4Cl)o3)nc12 | – | 5.14 µM
3 | CCOc1cc2[nH]c(=O)n(CC3CCC(C(=O)NC(C)CC)CC3)c(=O)c2cc1OCC (stereo not given) | – | 4.27 µM
4 | Cc1oc2cc(O)ccc2c(=O)c1Oc1ccccc1Br | – | 31.8 µM
5 | CCOc1cc2[nH]c(=O)n(CCCN3CCCC3=O)c(=O)c2cc1OCC | inactive | –
6 | CCCCC1C(=O)N(c2ccccc2)N(c2ccccc2)C1=O | – | 1.06 µM
7 | O=C1C(CCS(=O)c2ccccc2)C(=O)N(c2ccccc2)N1c1ccccc1 (stereo not given) | – | 17.3 µM
8 | O=C(O)CCCn1c(=O)[nH]c2cc3c(cc2c1=O)OCO3 | inactive | –
9 | CCCCC1(C)C(=O)N(c2ccccc2)N(c2ccccc2)C1=O | inactive | –
10 | COc1cc2[nH]c(=O)n(CCCC(=O)N3CCOCC3)c(=O)c2cc1OC | inactive | –
11 | Cn1c(=O)cc(SCC(=O)N2CCN(C3CCCCC3)CC2)c2ccccc21 | inactive | –
12 | COc1cccc2sc(Nc3nc(-c4ccncc4)cs3)nc12 | inactive | –
13 | CC(C)Oc1ccc(C(CC(=O)O)NC(=O)C2CCCCC2)cc1 (stereo not given) | – | 4.13 µM
14 | CCOc1ccc(C(CC(=O)O)NC(=O)C23CC4CC(CC(C4)C2)C3)cc1 (stereo not given) | – | 0.09 µM
15 | O=C(Cn1nc(-c2ccc3c(c2)OCCO3)ccc1=O)Nc1ccc(N2CCOCC2)cc1 | – | 14.1 µM
16 | COc1ccccc1-c1nnc(Nc2nc3c(OC)cccc3s2)o1 | inactive | –
17 | COc1cc2[nH]c3c(N4CCN(c5ccccn5)CC4)ncnc3c2cc1OC | inactive | –
18 | Cc1onc(-c2ccccc2)c1C(=O)NC(CC(=O)O)c1ccc(OC(C)C)cc1 (stereo not given) | – | 6.5 µM
19 | CCCCN1C(=O)C(c2ccccc2)N(c2ccccc2)C1=O (stereo not given) | inactive | –
20 | CCCCN1C(=O)N(c2ccccc2)C(CCCC)(c2ccccc2)C1=O (stereo not given) | inactive | –
21 | CCCCCNC(=O)CCCCn1c(=O)[nH]c2cc(OCC)c(OCC)cc2c1=O | – | 4.6 µM
22 | C=C(C)C1Cc2c(C)nn(-c3nc(C)cc(C)n3)c2C1 (stereo not given) | – | 45.1 µM
23 | COc1cc2[nH]c(=O)n(CCC(=O)N3CCc4ccccc4C3)c(=O)c2cc1OC | inactive | –

Continued, values first:

Row | outcome | EC50 | Compound
24 | inactive | – | O=C(NCC12CC3CC(CC(C3)C1)C2)c1nn2c(c1Cl)NC(c1ccco1)CC2C(F)(F)F (stereo not given)
25 | inactive | – | O=C1NC(=O)C(c2ccccc2)N1 (stereo not given)
26 | inactive | – | CCCCC1(C(=O)O)C(=O)N(c2ccccc2)N(c2ccccc2)C1=O
27 | inactive | – | COc1cc2[nH]c(=O)n(CCC(=O)NCc3cccnc3)c(=O)c2cc1OC
28 | inactive | – | COc1cc(Cn2c(-c3nonc3N)nc3ccccc32)ccc1C
29 | inactive | – | CCOc1cc2[nH]c(=O)n(CCCC(=O)NCc3ccco3)c(=O)c2cc1OCC
30 | inactive | – | CCOc1cc2[nH]c(=O)n(CCCCCC(=O)NCc3ccco3)c(=O)c2cc1OCC
31 | inactive | – | CCOc1cc2[nH]c(=O)n(CCCC(=O)N3CCCC3)c(=O)c2cc1OCC
32 | inactive | – | CCCCN1C(=O)NC(c2ccccc2)C1=O (stereo not given)
33 | inactive | – | O=C1NC(=O)N(c2ccccc2)C1c1ccccc1 (stereo not given)
34 | inactive | – | CCCCC1(O)C(=O)N(c2ccccc2)N(c2ccccc2)C1=O
35 | inactive | – | CCOc1cc2[nH]c(=O)n(CCC(=O)NCCOC)c(=O)c2cc1OCC
36 | inactive | – | COc1cccc2sc(Nc3nc(C)c(C(C)=O)s3)nc12
37 | – | 5.13 µM | CCOc1cc2[nH]c(=O)n(CCCCC(=O)NC3CCCCCC3)c(=O)c2cc1OCC
38 | – | 0.08 µM | CCCOc1ccc(C(CC(=O)O)NC(=O)C23CC4CC(CC(C4)C2)C3)cc1 (stereo not given)
39 | – | 2.34 µM | CCOc1cc2[nH]c(=O)n(CC3CCC(C(=O)NCCC(C)C)CC3)c(=O)c2cc1OCC (stereo not given)
40 | – | 52.6 µM | Cc1cc(C)cc(-n2ccnc(SCC(=O)Nc3ccc(Cl)cc3F)c2=O)c1

From PubChem BioAssay AID702 (NMMLSC, 2007)
